Assay: Loss of asthma control (LOAC) events, 12-week ICS/LABA withdrawal study
Assay type: in vivo, human
Settings: for RD vs. Placebo / LOAC, number / OR vs. placebo: 400 mg BID
Description: The general construct of this 12-week Loss of Asthma Control (LOAC) study consisted of a 4-week standardized ICS/LABA background therapy stabilization phase, a 4or 5-week background therapy withdrawal phase and a 3- or 4-week no background therapy phase, followed by a 4-week post IMP treatment safety follow-up period at the beginning of which, pre-screening asthma controller medications are restarted. Participants had access to short-acting β-agonist (SABA) reliever medication at all times during the protocol.
The primary endpoint was the proportion of patients with LOAC. The key secondary endpoint for the study was change in pre-bronchodilator FEV1 from baseline at EOT.
The primary endpoint was proportion of participants with LOAC during the 12-week treatment period.
Note that if the number of participants in some regions was too low, these regions may have been pooled with other regions. This strategy also applied to all the rest of the analyses where region was one of the covariates.
To assess the consistency in treatment effects across different subgroup levels, subgroup analyses were to be performed for the primary efficacy endpoint with respect to age group, gender, region, and other factors.
Secondary endpoints included pre-bronchodilator FEV1 change from baseline at EOT, ACQ-5 score change from baseline, and AQLQ score change from baseline. Other secondary and exploratory endpoints are described in Table 2.

[1] = all others than low EOS and low FeNO
[2] = background ICS/LABA dose Medium
[3] = baseline IgA <Median (2600) IU/mL
[4] = baseline IgA ≥Median (2600) IU/mL
[5] = baseline IgE <Median (210.8) IU/mL
[6] = baseline IgE ≥Median (210.8) IU/mL
[7] = baseline percent predicted FEV1 <Median (68)
[8] = baseline percent predicted FEV1 ≥ Median (68)
[9] = baseline pre-BD FEV1 <Median (2.022) L
[10] = baseline pre-BD FEV1 ≥Median (2.022) L
[11] = blood eosinophil level 1 <0.15 (10^9/L)
[12] = blood eosinophil level 1 ≥0.15 (10^9/L)
[13] = blood eosinophil level 2 <0.3 (10^9/L)
[14] = blood eosinophil level 2 ≥0.3 (10^9/L)
[15] = 400 mg TID cohort, Eastern Europe, n = 43
[16] = 400 mg TID cohort, Latin America, n = 19

## CC(C)(C=C(C#N)C(=O)N1CCC[C@@H](n2nc(-c3ccc(Oc4ccccc4)cc3F)c3c(N)ncnc32)C1)N1CCN(C2COC2)CC1 (mixture of isomers) [rilzabrutinib, (R)-2-[3-[4-amino-3-(2-fluoro-4-phenoxy-phenyl)pyrazolo[3,4-d]pyrimidin-1-yl]piperidine-1-carbonyl]-4-methyl-4-[4-(oxetan-3-yl)piperazin-1-yl]pent-2-enenitrile]
Age at onset ≥18-<40 years
  RD vs. Placebo: −0.314
Age at onset ≥18 years
  LOAC, number: 7
  OR vs. placebo: 0.323
  RD vs. Placebo: −0.258
Age at onset ≥40 years
  LOAC, number: 3
  OR vs. placebo: 3.000
  RD vs. Placebo: 0.250
[1]
  LOAC, number: 12
  OR vs. placebo: 0.808
  RD vs. Placebo: −0.053
Atopic medical conditions: No
  LOAC, number: 4
  OR vs. placebo: 0.380
  RD vs. Placebo: −0.204
Atopic medical conditions: Yes
  LOAC, number: 8
  OR vs. placebo: 0.681
  RD vs. Placebo: −0.069
Background ICS/LABA dose High
  LOAC, number: 11
  OR vs. placebo: 0.737
  RD vs. Placebo: −0.075
[2]
  LOAC, number: 1
  RD vs. Placebo: −0.467
Baseline ACQ-5 >2
  OR vs. placebo: 0.475
Baseline ACQ-5 ≤2
  LOAC, number: 7
  OR vs. placebo: 0.651
  RD vs. Placebo: −0.098
Baseline FeNO level 1 <25 ppb
  LOAC, number: 3
  OR vs. placebo: 0.261
  RD vs. Placebo: −0.227
Baseline FeNO level 1 ≥25 ppb
  LOAC, number: 9
  OR vs. placebo: 0.946
  RD vs. Placebo: −0.007
Baseline FeNO level 2 <35 ppb
  LOAC, number: 8
  OR vs. placebo: 0.448
  RD vs. Placebo: −0.198
Baseline FeNO level 2 ≥35 ppb
  LOAC, number: 4
  OR vs. placebo: 0.800
  RD vs. Placebo: −0.053
[3]
  LOAC, number: 4
  OR vs. placebo: 0.205
  RD vs. Placebo: −0.365
[4]
  LOAC, number: 8
  OR vs. placebo: 1.633
  RD vs. Placebo: 0.122
Baseline IgE <100 IU/mL
  LOAC, number: 2
  OR vs. placebo: 0.412
  RD vs. Placebo: −0.220
[5]
  LOAC, number: 6
  OR vs. placebo: 0.744
  RD vs. Placebo: −0.053
Baseline IgE ≥100 IU/mL
  LOAC, number: 10
  OR vs. placebo: 0.652
  RD vs. Placebo: −0.092
[6]
  LOAC, number: 6
  OR vs. placebo: 0.604
  RD vs. Placebo: −0.124
[7]
  LOAC, number: 7
  OR vs. placebo: 0.700
  RD vs. Placebo: −0.088
[8]
  OR vs. placebo: 0.556
  RD vs. Placebo: −0.143
[9]
  LOAC, number: 7
  OR vs. placebo: 0.700
  RD vs. Placebo: −0.088
[10]
  OR vs. placebo: 0.556
  RD vs. Placebo: −0.143
[11]
  LOAC, number: 2
  OR vs. placebo: 0.527
  RD vs. Placebo: −0.135
[12]
  LOAC, number: 10
  OR vs. placebo: 0.737
  RD vs. Placebo: −0.077
[13]
  OR vs. placebo: 0.231
  RD vs. Placebo: −0.197
[14]
  LOAC, number: 7
  OR vs. placebo: 0.951
  RD vs. Placebo: −0.013
Low EOS (<0.15) and low FeNO (<25)
  LOAC, number: 0
Smoking history Former
  LOAC, number: 3
  OR vs. placebo: 3.000
  RD vs. Placebo: 0.250
Smoking history Never
  LOAC, number: 9
  OR vs. placebo: 0.474
  RD vs. Placebo: −0.179
[15]
  LOAC incidence, number of participants: 8
  LOAC incidence, percentage: (18.6)
400 mg TID cohort, Eastern Europe, 95% CI (0.187, 1.368)
  LOAC OR vs. placebo: 0.506
[16]
  LOAC incidence, number of participants: 4
  LOAC incidence, percentage: (21.1)
400 mg TID cohort, Latin America, 95% CI (0.166, 3.357)
  LOAC OR vs. placebo: 0.747
400 mg TID cohort, Latin America, 95% CI (−0.322, 0.217)
  LOAC RD vs. placebo: −0.053
